Results as given in EP0171760A2, “Substituted phenoxypropylaminoethoxyphenoxyacetamides” (BEECHAM GROUP PLC, priority 1984, dated 1986).

Tests used:
[1] = test system: left ventricular pressure (LVP); assay: Assessment of inotropic activity in conscious cats; format: in vivo; details: 0.2 mg/kg p.o., gelatin capsule, recording 6 hours post dosing
Method: Male 3-4.5 kg cats, bred in-house, are implanted with a polythene cannula in the left ventricle which is exte- riorised at the back of the neck by means of a small teflon valve. Recordings are made via a pressure transducer attached by means of a length of polyethylene tubing to the cat neck valve.
During an initial 1 hour stabilisation period, steady baseline recordings are obtained. The test compound, contained in a gelatin capsule, is then administered orally. Recording is normally carried out for 6 hours post dosing.
The maximal percentage change in dp/dt over initial baseline level is used as the index of inotropic activity. Chronotropic activity is taken as the maximal percentage change in HR over initial baseline level.

[2] = test system: electrically paced left atrium; assay: Activity on isolated rat atria: tension of electrically paced left atrium; design: species or system Sprague-Dawley male rats; details: 32°C; for Emax: maximal effect with respect to isoprenaline maximum (isoprenaline 10^-7M = 1), Krebs solution, read-out: Tension Intrinsic activity; for EC50: molar concentration producing 50% of the compound's own maximum response
Method: (§1) Sprague-Dawley male rats (300-400 g) are killed and the right and left atria dissected out independently and mounted on a combined tissue holder/electrode. The tissues are then immersed in a glass bath containing Krebs solution maintained at 32°C. The rate of the spontaneously beating right atrium (via an isometric transducer and a ratemeter) and the tension of the electrically paced left atrium (via an isometric transducer)are recorded on a M19 chart recorder.
(§2) After an initial stabilization period, the tissues are exposed to a maximal concentration of isoprenaline (10^-7M). The tissues are then washed several times until rate and tension return to baseline level. A dose-response curve to the test compound is then carried out.
(§3) Responses to each concentration of test compound are expressed as a percentage of the maximal responses to isoprenaline. Results are given in the form of (a) intrinsic activity (maximal effect of test compound with respect to isoprenaline maximum, i.e. isoprenaline intrinsic activity = 1) and (b) EC50 (the molar concentration at which the test compound produces 50% of its own maximum response).

[3] = test system: spontaneously beating right atrium; assay: Activity on isolated rat atria: rate of spontaneously beating right atrium; design: species or system Sprague-Dawley male rats; details: 32°C; for Emax: maximal effect with respect to isoprenaline maximum (isoprenaline 10^-7M = 1), Krebs solution, read-out: Rate Intrinsic activity; for EC50: molar concentration producing 50% of the compound's own maximum response
Method: as §1, §2, §3

`CNC(=O)COc1ccc(OCC(C)NCC(O)COc2ccc(O)cc2)cc1` (stereo not shown) [Example 1, N-methyl 4-[2-[3-(4-hydroxyphenoxy)-2-hydroxypropylamino]-2-methylethoxy]phenoxyacetamide] was tested, and the “Peak HR” value ([1]; maximal percentage change in HR over initial baseline (chronotropic activity)) was 0%, the Peak dp/dt ([1]; maximal percentage change in dp/dt over initial baseline (inotropic activity)) was 22% and the Emax [2] was 88%. It also gave an EC50 [2] of 25 nM, an Emax [3] of 94% and an EC50 [3] of 10 nM.
Molecule `CNC(=O)COc1ccc(OCCNCC(O)COc2ccc(O)cc2)cc1` (stereo not shown) [Example 2, N-methyl 4-[2-[3-(4-hydroxyphenoxy)-2-hydroxypropylamino]ethoxy]-phenoxyacetamide] has an Emax [2] of 61%, an EC50 [2] of 150 nM and an Emax [3] of 77%. The EC50 [3] was 68 nM.
